From patent EP0412158A1, “ONCOSTATIC DRUG” (priority 1987, dated 1988)
“And” between values parts separate entries of the source, which are not always exact repeats. Identical values can stand only once. Like-named read-outs stand apart in the source and are kept apart here. Marks after values point to notes of the source that are not given here.

Assays:
[1] = test system: human breast cancer (MX-1); assay type: in vivo, female nude mice; details: for T/C: tumor volume
Method: A patch of human breast cancer [cancer cells recommended by National Cancer Institute (NCI) of U.S.A.] (MX-1) measuring approximately 2 x 2 mm in area was transplanted to female nude mice 5 weeks old. For 10 days following the 17th day of the transplantation, an aqueous solution containing 1% by weight of the aforementioned isopropylammonium polymolybdate (Compound A) was administered continuously at a dose of 100 mg/kg or 200 mg/kg once per day by intraperitoneal injection (ip). After the stop of the administration, the volume of tumor was measured daily for 15 or 20 days to evaluate the effect of the compound. With either of the dose of 100 mg/kg and the dose of 200 mg/kg, significant suppression of hyperplasia began to appear around the 6th day of administration of ip (x 10). Even after the stop of the administration (25th or 30th day), a distinct suppression of cancerous hyperplasia of about 70% was retained. Generally, by the NCI standard, a ratio of suppression exceeding 50% is rated as effective. […] For comparison, similar mice to which the human cancer was transplanted and the aqueous solution was not administered were tested by following the procedure described above.

[2] = test system: methyl cholanthrene A; assay: Methyl cholanthrene A tumor, evaluation by extension of period of survival (Examples 7 to 11); assay type: in vivo, female BALB/C mice; details: for Change in body weight: ip×9, D1~D9
Method: The aforementioned compounds, A to D, were severally dissolved in distilled water to obtain aqueous solutions containing the compounds in a fixed concentration of 10 mg/ml. To the female BALB/C mice (five weeks old) to which methyl cholanthrene A had been transplanted in a ratio of 1.0 x 10^5 cells per mouse, […] to determine the mices' periods of survival. For comparison, mice to which no antineoplastic drug was administered and mice to which aminonitroso urea was administered were similarly tested.

[3] = Test for acute toxicity; assay type: in vivo, BALB/C mice, nude mice; details: result in words
[4] = test system: human lung cancer (OAT); assay type: in vivo, female ICR/cd-1 mice; details: Example 39: 100 mg/kg (so in the source), IP 1~6
[5] = test system: human lung cancer (OAT); assay type: in vivo, female ICR/cd-1 mice
Method: A patch of human lung cancer [cancer cells recommended by National Cancer Institute (NCI) of the U.S.A.] (OAT) measuring approximately 1 x 1 mm in area was transplanted beneath the hepatic capsule of each of female ICR/cd-1 mice (18 to 20 g) five to six weeks old (SRC method).
Then, an aqueous solution of 1% by weight of the aforementioned compound M was administered by intraperitoneal injection (ip) at a dose of 100 mg/kg and a dose of 200 mg/kg to the mice once per day for 5 consecutive days. The body weights of the mice and the sizes of tumor in the mice were measured on the 7th day, i.e. after one days interval following the stop of the administration to evaluate the effect of compound.

[6] = test system: MM-46 breast cancer; assay type: in vivo, female C3H/He mice
Method: The aforementioned active compound M was dissolved in distilled water to obtain an aqueous solution containing the compound in a concentration of 10 mg/ml. To female C3H/He mice (five weeks old) to which MM-46 breast cancer was transplanted in a ratio of 1.0 x 10^5 cells per mouse, the aqueous solution was administered intraperitoneally (ip) or orally (po) at a dose of 100 mg and a dose of 200 mg per kg of body weight for 9 consecutive days to measure the periods of the mices survival. For comparison, mice to which no aqueous solution was administered was similarly tested.

In the case of “[NH3C3H7(iso)]s (Mo7O24] • 3H2O [Compound A]”, the “suppression of cancerous hyperplasia” value ([1]; 100 mg/kg and 200 mg/kg ip ×10, after the stop of the administration (25th or 30th day)) is reported as “about 70%”, the Volume of tumor ([1]; 100 mg/kg ip ×10, 0 day) is reported as 278.3±22.0 mm^3 and the Volume of tumor ([1]; 100 mg/kg ip ×10, 1 day) is reported as 283.3±50.8 mm^3. The T/C ([1]; 100 mg/kg ip ×10, 1 day) was 67.3%, the Volume of tumor ([1]; 100 mg/kg ip ×10, 2 day) was 302.3±58.6 mm^3 and the T/C ([1]; 100 mg/kg ip ×10, 2 day) was 58.6%. For the same substance, the Volume of tumor ([1]; 100 mg/kg ip ×10, 3 day) was 324.7±123.5 mm^3, the T/C ([1]; 100 mg/kg ip ×10, 3 day) was 60.5% and the Volume of tumor ([1]; 100 mg/kg ip ×10, 4 day) was 366.3±121.7 mm^3. The T/C ([1]; 100 mg/kg ip ×10, 4 day) was 60.7%, the Volume of tumor ([1]; 100 mg/kg ip ×10, 5 day) was 413.7±168.8 mm^3 and the T/C ([1]; 100 mg/kg ip ×10, 5 day) was 57.8%. The Volume of tumor ([1]; 100 mg/kg ip ×10, 6 day) was 366.0±121.3 mm^3, the T/C ([1]; 100 mg/kg ip ×10, 6 day) was 44.2** % and the Volume of tumor ([1]; 100 mg/kg ip ×10, 7 day) was 302.7±173.5 mm^3. The T/C ([1]; 100 mg/kg ip ×10, 7 day) was 33.3** %, the Volume of tumor ([1]; 100 mg/kg ip ×10, 9 day) was 397.3±226.9 mm^3 and the T/C ([1]; 100 mg/kg ip ×10, 9 day) was 36.9* %. The Volume of tumor ([1]; 100 mg/kg ip ×10, 10 day) was 406.7±202.6 mm^3, the T/C ([1]; 100 mg/kg ip ×10, 10 day) was 29.7*** % and the Volume of tumor ([1]; 100 mg/kg ip ×10, 15 day) was 734.0±524.0 mm^3. For the same substance, the T/C ([1]; 100 mg/kg ip ×10, 15 day) was 33.3* %, the Volume of tumor ([1]; 100 mg/kg ip ×10, 19 day) was 994.0±613.0 mm^3 and the T/C ([1]; 100 mg/kg ip ×10, 19 day) was 37.4* %. The Volume of tumor ([1]; 100 mg/kg ip ×10, 21 day) was 1039.0±646.0 mm^3, the T/C ([1]; 100 mg/kg ip ×10, 21 day) was 30.0* % and the Volume of tumor ([1]; 100 mg/kg ip ×10, 25 day) was 1301.0±912.3 mm^3. For the same substance, the T/C ([1]; 100 mg/kg ip ×10, 25 day) was 32.6* %, the Volume of tumor ([1]; 200 mg/kg ip ×10, 1 day) was 371.8±10.8 mm^3 and the Volume of tumor ([1]; 200 mg/kg ip ×10, 2 day) was 439.8±56.9 mm^3. The Volume of tumor ([1]; 200 mg/kg ip ×10, 4 day) was 518.8±54.7 mm^3, the T/C ([1]; 200 mg/kg ip ×10, 4 day) was 62.1* % and the Volume of tumor ([1]; 200 mg/kg ip ×10, 5 day) was 610.5±15.2 mm^3. The T/C ([1]; 200 mg/kg ip ×10, 5 day) was 55.9* %, the Volume of tumor ([1]; 200 mg/kg ip ×10, 6 day) was 656.8±25.7 mm^3 and the T/C ([1]; 200 mg/kg ip ×10, 6 day) was 62.9**** %. For the same substance, the Volume of tumor ([1]; 200 mg/kg ip ×10, 7 day) was 759.3±84.3 mm^3, the T/C ([1]; 200 mg/kg ip ×10, 7 day) was 54.5** % and the Volume of tumor ([1]; 200 mg/kg ip ×10, 8 day) was 852.0±126.7 mm^3. The T/C ([1]; 200 mg/kg ip ×10, 8 day) was 58.1* %, the Volume of tumor ([1]; 200 mg/kg ip ×10, 9 day) was 695.7±29.6 mm^3 and the T/C ([1]; 200 mg/kg ip ×10, 9 day) was 42.4*** %. The Volume of tumor ([1]; 200 mg/kg ip ×10, 10 day) was 759.7±21.1 mm^3, the T/C ([1]; 200 mg/kg ip ×10, 10 day) was 41.9** % and the Volume of tumor ([1]; 200 mg/kg ip ×10, 11 day) was 816.7±16.7 mm^3. The T/C ([1]; 200 mg/kg ip ×10, 11 day) was 39.3** %, the Volume of tumor ([1]; 200 mg/kg ip ×10, 13 day) was 1070.0±41.0 mm^3 and the T/C ([1]; 200 mg/kg ip ×10, 13 day) was 39.9*** %. The Volume of tumor ([1]; 200 mg/kg ip ×10, 16 day) was 1110.0±21.0 mm^3, the T/C ([1]; 200 mg/kg ip ×10, 16 day) was 34.5*** % and the Volume of tumor ([1]; 200 mg/kg ip ×10, 18 day) was 1446.0±75.0 mm^3. The T/C ([1]; 200 mg/kg ip ×10, 18 day) was 33.9*** %, the Volume of tumor ([1]; 200 mg/kg ip ×10, 19 day) was 1405.0±159.8 mm^3 and the T/C ([1]; 200 mg/kg ip ×10, 19 day) was 29.9*** %. For the same substance, the Volume of tumor ([1]; 200 mg/kg ip ×10, 22 day) was 1583.3±145.2 mm^3, the T/C ([1]; 200 mg/kg ip ×10, 22 day) was 30.9*** % and the Volume of tumor ([1]; 200 mg/kg ip ×10, 25 day) was 1708.0±243.2 mm^3. For the same substance, the T/C ([1]; 200 mg/kg ip ×10, 25 day) was 29.2*** %, the Volume of tumor ([1]; 200 mg/kg ip ×10, 30 day) was 2033.7±430.9 mm^3 and the T/C ([1]; 200 mg/kg ip ×10, 30 day) was 27.2*** %. For the same substance, the “Average number of days of survival” value ([2]; No. 1, 100 mg/kg, ip×9) was 42.3 ± 3.0 days, the “Number of toxically killed mice/total number of mice” value ([2]; No. 1, 100 mg/kg, ip×9) was 0/8 and the “Change in body weight” value ([2]; No. 1, 100 mg/kg) was “+2.50 g”. The T/control ([2]; No. 1, 100 mg/kg, ip×9, days of survival) was 163.1, the “Average number of days of survival” value ([2]; No. 2, 50 mg/kg, ip×9) was 31.8±2.2(8) days and the “Number of toxically killed mice/total number of mice” value ([2]; No. 2, 50 mg/kg, ip×9) was 0/8. The “Change in body weight” value ([2]; No. 2, 50 mg/kg) was “+1.68 g”, the T/control ([2]; No. 2, 50 mg/kg, ip×9, days of survival) was 131.8 and the T/control ([2]; period of survival) was 63.1%. The acute toxicity ([3]; BALB/C mice, dose of 3,600 mg/kg) was “no toxicity” and the acute toxicity ([3]; nude mice, dose of 2,000 mg/kg ip) was “no toxicity”.

In the case of Nas [IMo6O24] • 34H2O [Compound M], the T/C [4] is reported as 60.0%, the “Tumorous activity T7/T0” value ([4]; group mean) is reported as 1.56±0.24 and the “Tumorous activity T7/T0” value ([4]; individual mice, 100 mg/kg) is reported as 1.25 and 1.40 and 2.05. The “Tumorous activity T7” value ([4]; size of tumor on 7th day, individual mice, 100 mg/kg) was 12.5 omu and 14.0 omu and 20.5 omu, the T/C ([5]; 100 mg/kg, IP 1~6 (except for 4)) was 77.4% and the “Tumorous activity T7/T0” value ([5]; 100 mg/kg, IP 1~6 (except for 4), group mean) was 2.00±0.20. The “Tumorous activity T7/T0” value ([5]; 100 mg/kg, IP 1~6 (except for 4), individual mice) was 2.25 and 1.60 and 2.15, the “Tumorous activity T7” value ([5]; 100 mg/kg, IP 1~6 (except for 4), size of tumor on 7th day, individual mice) was 22.5 omu and 16.0 omu and 21,5 omu and the antineoplastic activity ([5]; result in words) was “strong antineoplastic activity”. For the same substance, the “% ILS” value ([6]; 100 mg/kg/day ip×9) was 100.9%, the “(column without head: number of mice/total number of mice)” value ([6]; 100 mg/kg/day ip×9) was 1/7 and the “Average days of survival ±SE” value ([6]; 100 mg/kg/day ip×9) was 55.1±8.7(7) days. For the same substance, the “% ILS” value ([6]; 200 mg/kg/day po×9) was 59.7%, the “(column without head: number of mice/total number of mice)” value ([6]; 200 mg/kg/day po×9) was 0/6 and the “Average days of survival ±SE” value ([6]; 200 mg/kg/day po×9) was 43.8±3.9(6) days.
